Test results taken from patent US12492179B2, “Substituted ethylamine fused heterocyclic mescaline derivatives” (Enveric Biosciences Canada Inc., priority 2022, dated 2025).

Tests used:
5-HT1A receptor [1] = target: T1, 5-HT1A receptor (Homo sapiens, UniProt P08908); test: Eurofins Cerep competition binding assay at 5-HT1A receptor; conditions: test ligand 10 μM; [3H]8-OH-DPAT 0.5 nM; recombinant receptor, HEK-293 membranes
T1 construct: purchased Perkin Elmer 6110501400UA
T1 sequence (P08908 1-422): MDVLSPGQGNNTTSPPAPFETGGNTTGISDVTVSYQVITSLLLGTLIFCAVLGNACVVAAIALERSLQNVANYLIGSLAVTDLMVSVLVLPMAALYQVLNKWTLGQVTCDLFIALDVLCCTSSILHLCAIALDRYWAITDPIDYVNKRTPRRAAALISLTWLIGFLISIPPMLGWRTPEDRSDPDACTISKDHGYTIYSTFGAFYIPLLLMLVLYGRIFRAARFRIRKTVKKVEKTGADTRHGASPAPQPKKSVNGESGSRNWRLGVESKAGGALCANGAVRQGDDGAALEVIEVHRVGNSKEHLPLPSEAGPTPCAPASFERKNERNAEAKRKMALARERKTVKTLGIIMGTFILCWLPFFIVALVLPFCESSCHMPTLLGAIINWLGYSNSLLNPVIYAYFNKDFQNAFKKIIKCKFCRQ

MT1 receptor = target: T2, MT1 receptor (Homo sapiens, UniProt P48039); test: Eurofins Cerep competition binding assay at MT1 receptor; conditions: test ligand 10 μM; [125I]2-iodomelatonin 0.01 nM; recombinant receptor, CHO membranes
T2 construct: host or cells: CHO
T2 sequence (P48039 whole entry): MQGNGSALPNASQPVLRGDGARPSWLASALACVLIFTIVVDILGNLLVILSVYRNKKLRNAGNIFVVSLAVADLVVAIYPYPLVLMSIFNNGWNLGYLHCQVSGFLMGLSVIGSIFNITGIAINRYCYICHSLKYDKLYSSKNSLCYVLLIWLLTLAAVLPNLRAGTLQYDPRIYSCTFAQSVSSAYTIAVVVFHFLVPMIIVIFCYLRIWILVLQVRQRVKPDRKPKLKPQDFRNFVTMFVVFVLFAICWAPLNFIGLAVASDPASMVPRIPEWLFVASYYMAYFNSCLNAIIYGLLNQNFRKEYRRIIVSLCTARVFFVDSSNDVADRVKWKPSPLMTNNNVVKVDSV

5-HT2B receptor = target: T3, 5-HT2B receptor (Homo sapiens, UniProt P41595); test: Eurofins Cerep competition binding assay at 5-HT2B receptor; conditions: test ligand 10 μM; [3H]mesulergine 2 nM; recombinant receptor, CHO membranes
T3 construct: host or cells: CHO
T3 sequence (P41595 whole entry): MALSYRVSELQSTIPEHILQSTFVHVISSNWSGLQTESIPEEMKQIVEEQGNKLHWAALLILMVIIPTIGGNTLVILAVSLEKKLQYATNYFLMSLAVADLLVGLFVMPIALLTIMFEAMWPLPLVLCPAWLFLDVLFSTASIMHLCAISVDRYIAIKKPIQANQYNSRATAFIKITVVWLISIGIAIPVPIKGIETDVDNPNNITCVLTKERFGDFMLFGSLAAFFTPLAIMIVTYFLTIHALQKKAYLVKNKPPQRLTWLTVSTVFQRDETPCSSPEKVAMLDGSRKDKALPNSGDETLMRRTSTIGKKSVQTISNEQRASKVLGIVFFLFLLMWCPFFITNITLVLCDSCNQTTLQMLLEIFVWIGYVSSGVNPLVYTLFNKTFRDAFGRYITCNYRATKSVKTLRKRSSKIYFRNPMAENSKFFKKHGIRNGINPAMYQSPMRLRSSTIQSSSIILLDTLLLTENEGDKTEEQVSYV

alpha2A receptor = target: T4, alpha2A receptor (Homo sapiens, UniProt P08913); test: Eurofins Cerep competition binding assay at alpha2A receptor; conditions: test ligand 10 μM; [3H]RX 821002 1 nM; recombinant receptor, CHO membranes; read-out: α-2A, percent of control-specific binding
T4 construct: host or cells: CHO
T4 sequence (P08913 1-465): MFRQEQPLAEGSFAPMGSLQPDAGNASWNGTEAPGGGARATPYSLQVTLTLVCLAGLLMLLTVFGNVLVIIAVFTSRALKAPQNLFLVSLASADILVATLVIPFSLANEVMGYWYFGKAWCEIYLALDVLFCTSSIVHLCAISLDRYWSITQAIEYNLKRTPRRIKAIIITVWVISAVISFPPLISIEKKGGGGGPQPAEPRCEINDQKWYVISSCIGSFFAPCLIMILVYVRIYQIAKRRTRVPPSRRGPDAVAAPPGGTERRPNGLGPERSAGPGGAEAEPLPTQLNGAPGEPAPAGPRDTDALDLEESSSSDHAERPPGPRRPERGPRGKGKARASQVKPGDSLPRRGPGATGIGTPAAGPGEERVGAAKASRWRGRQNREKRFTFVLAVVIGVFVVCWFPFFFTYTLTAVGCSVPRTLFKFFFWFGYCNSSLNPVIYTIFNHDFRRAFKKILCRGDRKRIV

5-HT2A receptor [2] = target: T5, 5-HT2A receptor (Homo sapiens, UniProt P28223); type: binding; conditions: test ligand 10 μM; [125I](±)DOI 0.1 nM; recombinant receptor, HEK-293 membranes
T5 construct: host or cells: HEK-293
T5 sequence (P28223 whole entry): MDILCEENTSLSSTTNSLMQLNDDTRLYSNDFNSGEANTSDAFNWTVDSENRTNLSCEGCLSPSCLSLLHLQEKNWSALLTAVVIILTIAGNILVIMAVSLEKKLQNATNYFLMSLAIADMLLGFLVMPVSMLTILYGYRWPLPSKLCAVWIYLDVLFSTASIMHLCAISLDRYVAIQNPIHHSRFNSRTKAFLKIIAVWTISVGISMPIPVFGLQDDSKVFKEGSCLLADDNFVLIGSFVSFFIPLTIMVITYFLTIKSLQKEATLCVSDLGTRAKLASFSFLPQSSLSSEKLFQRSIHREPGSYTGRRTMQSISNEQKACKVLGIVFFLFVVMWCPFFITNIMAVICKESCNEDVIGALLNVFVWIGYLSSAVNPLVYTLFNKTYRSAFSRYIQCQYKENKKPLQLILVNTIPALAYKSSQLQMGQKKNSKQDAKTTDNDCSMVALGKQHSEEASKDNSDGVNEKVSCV

5-HT1A receptor [3] = target: T1, 5-HT1A receptor; test: 5-HT1A receptor radioligand competition assay (SPA, 8-hydroxy-DPAT); type: binding; conditions: for 5-HT1A receptor binding, in words (competition curves FIGS. 22B-22L): ligand 3 nM to 1 mM
D2 receptor = target: T6, D2 receptor (Homo sapiens, UniProt P14416); test: Eurofins Cerep competition binding assay at D2 receptor; conditions: test ligand 10 μM; [3H]methylspiperone 0.3 nM; recombinant receptor, HEK-293 membranes
T6 construct: host or cells: HEK-293
T6 sequence (P14416 1-414 isoform P14416-2): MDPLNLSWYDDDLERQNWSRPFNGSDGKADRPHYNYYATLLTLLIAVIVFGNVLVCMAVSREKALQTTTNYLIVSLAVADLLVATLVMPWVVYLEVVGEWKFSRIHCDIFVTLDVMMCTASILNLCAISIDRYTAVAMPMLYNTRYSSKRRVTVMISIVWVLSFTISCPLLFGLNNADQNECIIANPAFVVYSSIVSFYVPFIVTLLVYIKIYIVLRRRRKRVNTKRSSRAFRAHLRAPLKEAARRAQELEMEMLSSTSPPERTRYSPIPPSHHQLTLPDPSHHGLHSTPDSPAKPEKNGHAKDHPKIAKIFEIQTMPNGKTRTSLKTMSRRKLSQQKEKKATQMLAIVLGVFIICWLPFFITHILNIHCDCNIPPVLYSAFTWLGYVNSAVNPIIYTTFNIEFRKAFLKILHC

[4] = target: T7, norepinephrine transporter (NET) (Homo sapiens, UniProt P23975); test: Eurofins Cerep competition binding assay at norepinephrine transporter; conditions: test ligand 10 μM; [3H]nisoxetine 1 nM; recombinant transporter, CHO membranes
T7 construct: host or cells: CHO
T7 sequence (P23975 whole entry): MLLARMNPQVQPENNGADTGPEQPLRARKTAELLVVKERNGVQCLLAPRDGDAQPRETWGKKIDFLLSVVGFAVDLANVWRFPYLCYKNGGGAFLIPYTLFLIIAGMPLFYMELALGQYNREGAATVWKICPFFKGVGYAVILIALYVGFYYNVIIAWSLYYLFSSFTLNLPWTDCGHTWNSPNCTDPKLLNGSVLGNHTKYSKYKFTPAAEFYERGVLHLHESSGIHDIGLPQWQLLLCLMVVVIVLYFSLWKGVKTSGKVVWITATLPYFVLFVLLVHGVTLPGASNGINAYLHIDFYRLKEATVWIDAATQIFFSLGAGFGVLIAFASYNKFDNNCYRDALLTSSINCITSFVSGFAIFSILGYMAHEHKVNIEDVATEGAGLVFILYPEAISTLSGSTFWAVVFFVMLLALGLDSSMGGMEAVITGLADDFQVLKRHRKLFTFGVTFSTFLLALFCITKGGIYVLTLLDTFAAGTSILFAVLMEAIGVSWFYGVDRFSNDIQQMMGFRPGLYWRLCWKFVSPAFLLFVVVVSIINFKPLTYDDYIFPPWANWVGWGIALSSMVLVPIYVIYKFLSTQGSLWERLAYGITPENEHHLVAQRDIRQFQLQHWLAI

5-HT2C receptor = target: T8, 5-HT2C receptor (Homo sapiens, UniProt P28335); test: Eurofins Cerep competition binding assay at 5-HT2C receptor; conditions: test ligand 10 μM; [125I](±)DOI 0.1 nM; recombinant receptor, HEK-293 membranes
T8 construct: host or cells: HEK-293
T8 sequence (P28335 33-458): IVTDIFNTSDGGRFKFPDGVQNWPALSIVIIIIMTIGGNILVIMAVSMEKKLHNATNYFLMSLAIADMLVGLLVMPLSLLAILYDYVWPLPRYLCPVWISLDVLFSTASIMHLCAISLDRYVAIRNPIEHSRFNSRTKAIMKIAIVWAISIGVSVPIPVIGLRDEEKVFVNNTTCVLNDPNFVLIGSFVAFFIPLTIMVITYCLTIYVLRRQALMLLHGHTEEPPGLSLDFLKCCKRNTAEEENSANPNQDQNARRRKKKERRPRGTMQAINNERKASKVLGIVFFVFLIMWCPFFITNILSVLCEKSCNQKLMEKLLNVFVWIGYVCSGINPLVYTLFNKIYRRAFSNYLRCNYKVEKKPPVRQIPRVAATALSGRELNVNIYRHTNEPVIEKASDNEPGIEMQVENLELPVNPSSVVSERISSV

[5] = target: T9, serotonin transporter (SERT) (Homo sapiens, UniProt P31645); type: binding
T9 construct: host or cells: CHO
T9 sequence (P31645 whole entry): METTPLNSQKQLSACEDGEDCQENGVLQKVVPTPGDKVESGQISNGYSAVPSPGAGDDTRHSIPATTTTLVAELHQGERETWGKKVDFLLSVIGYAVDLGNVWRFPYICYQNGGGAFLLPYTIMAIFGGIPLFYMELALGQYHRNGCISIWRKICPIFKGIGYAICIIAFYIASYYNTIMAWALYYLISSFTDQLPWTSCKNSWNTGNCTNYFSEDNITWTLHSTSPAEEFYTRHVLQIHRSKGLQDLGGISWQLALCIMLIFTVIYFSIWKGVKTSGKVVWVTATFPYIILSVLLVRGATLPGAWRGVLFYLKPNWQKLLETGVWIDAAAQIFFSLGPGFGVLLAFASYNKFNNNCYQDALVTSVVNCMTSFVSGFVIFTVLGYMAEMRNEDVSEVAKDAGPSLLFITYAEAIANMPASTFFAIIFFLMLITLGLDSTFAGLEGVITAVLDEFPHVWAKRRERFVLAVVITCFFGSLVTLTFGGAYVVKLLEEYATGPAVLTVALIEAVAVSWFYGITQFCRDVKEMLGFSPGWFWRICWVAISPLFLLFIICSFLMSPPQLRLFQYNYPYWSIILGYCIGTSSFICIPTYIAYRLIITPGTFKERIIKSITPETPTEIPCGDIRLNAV

[6] = target: T10, dopamine transporter (DAT) (Homo sapiens, UniProt Q01959); test: Eurofins Cerep competition binding assay at dopamine transporter; conditions: test ligand 10 μM; [3H]BTCP 4 nM; recombinant transporter, CHO membranes
T10 construct: host or cells: CHO
T10 sequence (Q01959 whole entry): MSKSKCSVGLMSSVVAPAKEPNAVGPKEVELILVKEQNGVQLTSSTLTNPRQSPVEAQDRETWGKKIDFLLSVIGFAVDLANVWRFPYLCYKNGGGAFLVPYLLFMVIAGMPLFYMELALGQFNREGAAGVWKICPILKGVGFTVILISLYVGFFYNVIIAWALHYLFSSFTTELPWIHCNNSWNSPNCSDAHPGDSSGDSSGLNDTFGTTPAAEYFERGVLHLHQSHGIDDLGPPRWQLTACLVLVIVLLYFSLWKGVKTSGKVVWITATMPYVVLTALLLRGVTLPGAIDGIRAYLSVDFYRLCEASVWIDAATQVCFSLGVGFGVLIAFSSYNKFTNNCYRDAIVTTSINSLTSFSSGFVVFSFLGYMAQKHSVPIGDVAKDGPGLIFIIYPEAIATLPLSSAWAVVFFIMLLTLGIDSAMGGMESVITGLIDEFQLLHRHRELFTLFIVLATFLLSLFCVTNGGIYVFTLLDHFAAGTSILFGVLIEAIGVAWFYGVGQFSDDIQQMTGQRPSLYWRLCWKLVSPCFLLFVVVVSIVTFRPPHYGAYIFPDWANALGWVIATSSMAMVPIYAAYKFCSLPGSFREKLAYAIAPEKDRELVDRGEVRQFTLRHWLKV

5-HT2A receptor [7] = target: T5, 5-HT2A receptor; test: 5-HT2A receptor radioligand competition assay (SPA, [3H]ketanserin); type: binding; conditions: for Ki: SPA competition, 1 nM [3H]ketanserin, membranes containing 5-HT2A; for 5-HT2A receptor binding, in words (competition curves FIGS. 23B-23H): ligand 3 nM to 1 mM
D3 receptor = target: T11, D3 receptor (Homo sapiens, UniProt P35462); test: Eurofins Cerep competition binding assay at D3 receptor; conditions: test ligand 10 μM; [3H]methylspiperone […]; recombinant receptor, CHO membranes
T11 construct: host or cells: CHO
T11 sequence (P35462 whole entry): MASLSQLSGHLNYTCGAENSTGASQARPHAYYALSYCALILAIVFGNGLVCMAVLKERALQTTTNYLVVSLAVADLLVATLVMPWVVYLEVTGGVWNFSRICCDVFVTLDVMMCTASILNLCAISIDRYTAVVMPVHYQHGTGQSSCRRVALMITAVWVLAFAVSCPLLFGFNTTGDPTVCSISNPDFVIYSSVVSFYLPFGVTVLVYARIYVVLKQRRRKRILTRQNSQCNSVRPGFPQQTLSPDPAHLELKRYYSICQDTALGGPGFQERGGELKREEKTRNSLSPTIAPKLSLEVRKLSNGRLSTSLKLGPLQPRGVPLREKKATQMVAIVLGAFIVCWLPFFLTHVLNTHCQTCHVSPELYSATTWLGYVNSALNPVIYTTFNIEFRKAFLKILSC

| Compound | HT1A, percent of control-specific binding (5-HT1A receptor [1]) | MT1, percent of control-specific binding (MT1 receptor) | HT2B, percent of control-specific binding (5-HT2B receptor) | inhibition at 10 µM (alpha2A receptor) | HT2A, percent of control-specific binding (5-HT2A receptor [2]) | Ki (5-HT1A receptor [3]) | D2, percent of control-specific binding (D2 receptor) | NET, percent of control-specific binding [4] | HT2C, percent of control-specific binding (5-HT2C receptor) | SERT, percent of control-specific binding [5] | DAT, percent of control-specific binding [6] | Ki (5-HT2A receptor [7]) | D3, percent of control-specific binding (D3 receptor) | 5-HT1A receptor binding, in words (competition curves FIGS. 22B-22L) (5-HT1A receptor [3]) | 5-HT2A receptor binding, in words (competition curves FIGS. 23B-23H) (5-HT2A receptor [7]) |
| --- | --- | --- | --- | --- | --- | --- | --- | --- | --- | --- | --- | --- | --- | --- | --- |
| CC(C(=O)N1CCCC1)c1ccc2c(c1)OCO2 (racemic) [Ax(II)] | 3% | 5% | 5% | 0% | 0% | 108 µM | 0% | 0% | 0% | 2% | 5% | 591 µM | 0% |  |  |
| CC(C(=O)N(C)Cc1ccccc1)c1ccc2c(c1)OCO2 (racemic) [Ax(V)] | 2% | 55% | 30% | 0% | 2% | 186 µM | 0% | 13% | 16% | 0% | 71% | 83 µM | 8% |  |  |
| CC(CN1CCCC1)c1ccc2c(c1)OCO2 (racemic) [Bx(II)] | 36% | 0% | 38% | 19% | 10% | 14 µM | 6% | 9% | 52% | 81% | 79% |  | 14% |  |  |
| CC(CN(C)Cc1ccccc1)c1ccc2c(c1)OCO2 (racemic) [Bx(V)] | 17% | 9% | 41% | 24% | 13% | 45 µM | 12% | 47% | 42% | 46% | 78% | 63 µM | 19% | above levels observed for negative controls | above levels observed for negative control |
| COc1cc(CCN)c(OC)cc1Br [2C-B, reference compound] |  |  |  |  |  |  | 42% |  |  |  |  |  |  |  |  |
| c1cc2c(cc1CC1=NCCO1)OCO2 [C(III)] | 24% | 12% | 19% | 19% | 0% | 31 µM | 0% | 0% | 12% | 0% | 19% |  | 10% |  |  |
| COc1cc(CC(C)N)c(OC)cc1Br (stereo not drawn) [DOB, reference compound] |  |  |  |  |  |  | 9% |  |  |  |  |  |  |  |  |
| CN(C)CCCN1c2ccccc2CCc2ccccc21 [Imipramine, imipramine, reference compound] |  |  |  |  |  |  |  |  |  | 98% |  |  |  |  |  |
| CNC(C)Cc1ccc2c(c1)OCO2 (stereo not drawn) [MDMA, reference compound] |  |  |  |  |  |  | −10% |  |  |  |  |  |  |  |  |
| CCOc1c(OC)cc(CCN)cc1OC [escaline] |  |  |  |  |  |  | 5% |  |  |  |  |  |  | binding to 5-HT1A receptor |  |
| CCCOc1c(OC)cc(CCN)cc1OC [proscaline, reference compound] |  |  |  |  |  |  |  |  |  |  |  |  |  | binding to 5-HT1A receptor |  |
| CN(C)CCc1c[nH]c2cccc(O)c12 [psilocin, reference compound] |  |  |  |  |  |  |  |  |  |  |  |  |  |  | binding at the 5-HT2A receptor |
| N[C@@H](Cc1c[nH]c2ccccc12)C(=O)O [tryptophan, reference compound] |  |  |  |  |  |  |  |  |  |  |  |  |  | no binding | lack of binding at the 5-HT2A receptor |
